system: Per2-dLuc U2OS reporter cells; assay: Per2 assay for evaluating the potency of test compounds (high-throughput circadian assay); assay type: cell-based; details: Homo sapiens, U2OS, stable U2OS reporter cells harboring Per2-dLuc; luminescence monitored over 4-5 days at 35° C.
Outline: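 Compounds (0.5% DMSO final) were added right after serum-shock synchronization of Per2-dLuc U2OS reporter cells in minimal medium containing 1.0 mM beetle luciferin. Reporter luminescence was followed at 35 °C for 4–5 days to extract rhythm period, amplitude and phase, and EC50 values were obtained from these.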

Compared with `O=S1(=O)CCCCN1CC(O)Cn1c2cc(F)ccc2c2ccc(F)cc21` (stereo not shown) [Compound 91, N-(3-(2,7-Difluoro-9H-carbazol-9-yl)-2-hydroxypropyl)-1,2-thiazinane 1,1-dioxide], `O=S1(=O)NCCCN1CC(O)Cn1c2ccc(F)cc2c2cc(F)ccc21` (stereo not shown) [Compound 171, 2-(3-(3,6-Difluoro-9H-carbazol-9-yl)-2-hydroxypropyl)-1,2,6-thiadiazinane-1,1-dioxide] is 6-fold lower in EC50: 150 nM for the first, 25 nM for the second.

First: CS(=O)(=O)N(CC(O)Cn1c2ccccc2c2ccccc21)C1(C#N)CC1 (stereo not shown) [Compound 125, N-(3-(9H-Carbazol-9-yl)-2-hydroxypropyl)-N-(1-cyanocyclopropyl)methanesulfonamide]
Second: COCCN(CC(O)Cn1c2ccccc2c2ccccc21)S(C)(=O)=O (stereo not shown) [Compound 30, N-(3-(9H-Carbazol-9-yl)-2-hydroxypropyl)-N-(2-methoxyethyl)methanesulfonamide]
The EC50 of the first is 6.7-fold higher: 2610 nM for the first, 390 nM for the second. The second is the more potent here.

Compared with `CC1CCCC(N(CC(O)Cn2c3ccccc3c3ccccc32)S(C)(=O)=O)C1` (stereo not shown) [Compound 142, N-(3-(9H-Carbazol-9-yl)-2-hydroxypropyl)-N-(3-methylcyclohexyl)methanesulfonamide], `COC1CCCC(N(CC(O)Cn2c3ccccc3c3ccccc32)S(C)(=O)=O)C1` (stereo not shown) [Compound 139, N-(3-(9H-Carbazol-9-yl)-2-hydroxypropyl)-N-(3-methoxycyclohexyl)methanesulfonamide] is 3.1-fold lower in EC50: 813 nM for the first, 263 nM for the second.

First: CCN(CC(O)Cn1c2ccc(F)cc2c2ccc(F)cc21)S(C)(=O)=O (stereo not shown) [Compound 164, N-(3-(2,6-Difluoro-9H-carbazol-9-yl)-2-hydroxypropyl)-N-ethylmethanesulfonamide]
Second: CC(C)Oc1ccc(N(CC(O)Cn2c3ccc(F)cc3c3cc(F)ccc32)S(C)(=O)=O)cc1 (stereo not shown) [Compound 210, N-(3-(3,6-Difluoro-9H-carbazol-9-yl)-2-hydroxypropyl)-N-(4-isopropoxyphenyl)methanesulfonamide]
The EC50 of the first is 36-fold lower: 200 nM for the first, 7210 nM for the second. The first is the more potent here.

Compared with `O=S(=O)(C1CCOC1)N(Cc1ccco1)CC(O)Cn1c2ccccc2c2ccccc21` (stereo not shown) [Compound 85, N-(3-(9H-Carbazol-9-yl)-2-hydroxypropyl)-N-(furan-2-ylmethyl)tetrahydrofuran-3-sulfonamide], `O=S(=O)(CC1CCCO1)N(Cc1ccco1)CC(O)Cn1c2ccccc2c2ccccc21` (stereo not shown) [Compound 19, N-(3-(9H-Carbazol-9-yl)-2-hydroxypropyl)-N-(furan-2-ylmethyl)-1-(tetrahydrofuran-2-yl)methanesulfonamide] is 4.1-fold higher in EC50: 510 nM for the first, 2100 nM for the second. The first is the more potent here.

Going from `CC1CCCC1N(CC(C)(O)Cn1c2ccc(F)cc2c2cc(F)ccc21)S(C)(=O)=O` (stereo not shown) [Compound 192, N-(3-(3,6-Difluoro-9H-carbazol-9-yl)-2-hydroxy-2-methylpropyl)-N-(2-methylcyclopentyl)methanesulfonamide] to `CC1CCN(CC(C)(O)Cn2c3ccc(F)cc3c3cc(F)ccc32)S1(=O)=O` (stereo not shown) [Compound 179, 2-(3-(3,6-Difluoro-9H-carbazol-9-yl)-2-hydroxy-2-methylpropyl)-5-methylisothiazolidine-1,1-dioxide], the EC50 rises from 686 nM to 1200 nM (1.7-fold). The first is the more potent here.

Going from `CC(O)(CN1CCC(C)(C)S1(=O)=O)Cn1c2ccc(F)cc2c2cc(F)ccc21` (stereo not shown) [Compound 180, 2-(3-(3,6-Difluoro-9H-carbazol-9-yl)-2-hydroxy-2-methylpropyl)-5,5-dimethylisothiazolidine-1,1-dioxide] to `O=S1(=O)C(F)CCN1CC(O)Cn1c2ccc(F)cc2c2cc(F)ccc21` (stereo not shown) [Compound 183, 2-(3-(3,6-Difluoro-9H-carbazol-9-yl)-2-hydroxypropyl)-5-fluoroisothiazolidine-1,1-dioxide], the EC50 falls from 1650 nM to 53 nM (31-fold).

Compared with `CS(=O)(=O)N(Cc1ccco1)CC(O)Cn1c2ccccc2c2ccccc21` (stereo not shown) [Compound 1, N-(3-(9H-Carbazol-9-yl)-2-hydroxypropyl)-N-(furan-2-ylmethyl)methanesulfonamide], `O=S(=O)(c1ccccc1)N(Cc1ccco1)CC(O)Cn1c2ccccc2c2ccccc21` (stereo not shown) [Compound 4, N-(3-(9H-Carbazol-9-yl)-2-hydroxypropyl)-N-(furan-2-ylmethyl)benzenesulfonamide] is 7.4-fold higher in EC50: 340 nM for the first, 2500 nM for the second.

From patent US10383880B2 (Reset Therapeutics, Inc., priority 2012, dated 2019)
